Measured values taken from paper PMC4964800 (Bioorganic & medicinal chemistry letters, 2016).

What was measured:
Format in all cases: cell-based
STAT3 = test: IL-6-induced STAT3 activation high content; conditions: for IC50: Homo sapiens, CAL-33, read-out: STAT3 IC50; for times less active (STAT3) after exchanging R-substituents of 1a and 2b: compared with 1a and 2b; for fold improvement in STAT3 potency compared to original hit 2b: vs 2b
STAT1 = test: IFN-γ-induced STAT1 pathway activation assay; conditions: read-out: STAT1 IC50
[1] = test system: pSTAT3 and STAT3 target gene Cyclin D1; test: Western blot analysis in IL-6-stimulated Cal33 cells; conditions: IL-6 (50 ng/mL)-stimulated Cal33 cells

Row | Structure (SMILES) | IC50 (STAT3) [µM] | IC50 (STAT1) [µM] | also measured
1 | Clc1ccc(C2=Nn3c(nnc3-c3[nH]nc4c3CCC4)SC2)cc1Cl [Compound 1a] | 6.8 ± 3.7 | > 50 | 
2 | Clc1ccc(C2=Nn3c(nnc3-c3cc(-c4ccccc4)n[nH]3)SC2)cc1Cl [Compound 1b] |  | > 50 | times less active (STAT3) after exchanging R-substituents of 1a and 2b (STAT3): 3–4 times
3 | Clc1ccc(C2=Nn3c(nnc3-c3[nH]nc4c3CCC4)SC2)cc1 [Compound 2a] |  | > 50 | times less active (STAT3) after exchanging R-substituents of 1a and 2b (STAT3): 3–4 times
4 | Clc1ccc(C2=Nn3c(nnc3-c3cc(-c4ccccc4)[nH]n3)SC2)cc1 [Compound 2b] | 9.6 ± 7.8 | > 50 | 
5 | Clc1cccc(C2=Nn3c(nnc3-c3[nH]nc4c3CCC4)SC2)c1 [Compound 4a] |  | > 50 | 
6 | Clc1cccc(C2=Nn3c(nnc3-c3cc(-c4ccccc4)n[nH]3)SC2)c1 [Compound 4b] | 5.6 ± 4 | 45.9 ± 8.3 | 
7 | COc1ccc(C2CSc3nnc(-c4[nH]nc5c4CCC5)n3N2)cc1 (stereo not drawn) [Compound 12] |  |  | activity in the STAT3 assay (in words) (STAT3): inactive
8 | COc1ccc(C2CSc3nnc(-c4cc(-c5ccccc5)n[nH]4)n3N2C(C)=O)cc1 (stereo not drawn) [Compound 13] |  |  | activity in the STAT3 assay (in words) (STAT3): inactive
9 | Fc1ccc(-c2cc(-c3nnc4n3N=C(c3ccc(Cl)c(Cl)c3)CS4)[nH]n2)cc1 [Compound 14] |  |  | fold improvement in STAT3 potency over unsubstituted analog 1b (STAT3; vs 1b): ~ 4 fold
10 | Clc1ccc(C2=Nn3c(nnc3-c3[nH]nc4c3CCCC4)SC2)cc1Cl [Compound 16] |  |  | fold less active than cyclopentyl analog 1a (STAT3; vs 1a): ~ 2 fold
11 | CC1Sc2nnc(-c3[nH]nc4c3CCC4)n2N=C1c1ccc(Cl)c(Cl)c1 (stereo not drawn) [Compound 17] | 8.2 ± 2.2 | > 50 | 
12 | COc1ccc(C2=Nn3c(nnc3-c3[nH]nc4c3CCC4)SC2C)cc1 (stereo not drawn) [Compound 18] | 9.1 | > 50 | 
13 | CC1Sc2nnc(-c3cc(-c4ccccc4)n[nH]3)n2N=C1c1ccccc1 (stereo not drawn) [Compound 19] | 3.4 | 15 | fold improvement in STAT3 potency compared to original hit 2b (STAT3): 2–3 fold; downstream STAT3 target gene Cyclin D1 by Western blot [1]: significant inhibition; pSTAT3 levels by Western blot [1]: pronounced decreases
14 | CC1Sc2nnc(-c3cc(-c4ccc(F)cc4)n[nH]3)n2N=C1c1ccccc1 (stereo not drawn) [Compound 20] | 3.8 ± 0.8 | > 30 | fold improvement in STAT3 potency compared to original hit 2b (STAT3): 2–3 fold
15 | COc1ccc(C2=Nn3c(nnc3-c3cc(-c4ccc(F)cc4)n[nH]3)SC2C)cc1 (stereo not drawn) [Compound 21] | 4.2 | > 30 | fold improvement in STAT3 potency compared to original hit 2b (STAT3): 2–3 fold
16 | COc1ccc(C2=Nn3c(nnc3-c3cc(-c4ccc(Cl)cc4)n[nH]3)SC2C)cc1 (stereo not drawn) [Compound 22] |  |  | downstream STAT3 target gene Cyclin D1 by Western blot [1]: significant inhibition; pSTAT3 levels by Western blot [1]: pronounced decreases
17 | CC(C)C1Sc2nnc(-c3[nH]nc4c3CCC4)n2N=C1c1ccc(Cl)c(Cl)c1 (stereo not drawn) [Compound 23] | 4.4 | > 50 | 
18 | COc1ccc(C2=Nn3c(nnc3-c3[nH]nc4c3CCC4)SC2C(C)C)cc1 (stereo not drawn) [Compound 24] |  | > 50 | 
19 | CC(C)CC1Sc2nnc(-c3[nH]nc4c3CCC4)n2N=C1c1ccc(Cl)c(Cl)c1 (stereo not drawn) [Compound 25] | 4.1 | > 50 | 
20 | COc1ccc(C2=Nn3c(nnc3-c3cc(-c4ccccc4)n[nH]3)SC2CC(C)C)cc1 (stereo not drawn) [Compound 26] |  | > 50 | 
21 | Clc1ccc(C2=Nn3c(nnc3-c3[nH]nc4c3CCC4)SC2Cc2ccccc2)cc1Cl (stereo not drawn) [Compound 27] | 7.5 | > 50 | 
22 | CC1(C)Sc2nnc(-c3[nH]nc4c3CCC4)n2N=C1c1ccc(Cl)c(Cl)c1 [Compound 30] | 18.6 | > 50 | 

The next lines start with results.

Row | IC50 (STAT3) [µM] | IC50 (STAT1) [µM] | Structure (SMILES) | also measured
23 | 21.2 ± 23.5 | > 50 | c1ccc(C2=Nn3c(nnc3-c3[nH]nc4c3CCC4)SC2)cc1 [Compound 5a] | 
24 |  | > 50 | c1ccc(C2=Nn3c(nnc3-c3cc(-c4ccccc4)[nH]n3)SC2)cc1 [Compound 5b] | 
25 |  | 40.6 ± 7.5 | COc1ccc(C2=Nn3c(nnc3-c3[nH]nc4c3CCC4)SC2)cc1 [Compound 6a] | 
26 |  | > 50 | COc1ccc(C2=Nn3c(nnc3-c3cc(-c4ccccc4)n[nH]3)SC2)cc1 [Compound 6b] | 
27 |  | > 50 | c1cc(C2=Nn3c(nnc3-c3[nH]nc4c3CCC4)SC2)ccn1 [Compound 7a] | 
28 |  | > 50 | c1ccc(-c2cc(-c3nnc4n3N=C(c3ccncc3)CS4)[nH]n2)cc1 [Compound 7b] | 
29 |  | > 50 | Clc1ccc(C2=Nn3c(nnc3-c3[nH]nc4c3CCC4)SC2)s1 [Compound 8a] | 
30 |  | > 50 | Clc1ccc(C2=Nn3c(nnc3-c3cc(-c4ccccc4)n[nH]3)SC2)s1 [Compound 8b] | 
31 |  | > 50 | C1=Nn2c(nnc2-c2[nH]nc3c2CCC3)SC1 [Compound 9a] | 
32 |  | > 50 | C1=Nn2c(nnc2-c2cc(-c3ccccc3)n[nH]2)SC1 [Compound 9b] | 
33 |  | > 50 | CC1=Nn2c(nnc2-c2[nH]nc3c2CCC3)SC1 [Compound 10a] | 
34 |  | > 50 | CC1=Nn2c(nnc2-c2cc(-c3ccccc3)[nH]n2)SC1 [Compound 10b] | 
35 |  | > 50 | C1CCC(C2=Nn3c(nnc3-c3[nH]nc4c3CCC4)SC2)CC1 [Compound 11a] | 
36 |  | > 50 | c1ccc(-c2cc(-c3nnc4n3N=C(C3CCCCC3)CS4)[nH]n2)cc1 [Compound 11b] | 
